In the NIST ThermoML archive (doi:10.1016/j.fluid.2019.05.003):

Assay: xn = mol fraction of the nth substance listed
Conditions: 101 kPa, Liquid; for viscosity: Falling or rolling sphere viscometry; for mass density: Vibrating tube method

CC[N+](C)(C)CCO.[Br-] [ethyl(2-hydroxyethyl)dimethylammonium bromide] + O
Conditions	mass density [kg/m3]	viscosity [mPa·s]
298.15 K, x1 = 0.026	1061.1	1.249
298.15 K, x1 = 0.049	1103.4	1.613
298.15 K, x1 = 0.068	1132.6	2.066
298.15 K, x1 = 0.086	1155.4	2.594
298.15 K, x1 = 0.119	1190.7	4.028
298.15 K, x1 = 0.156	1220	6.186
298.15 K, x1 = 0.185	1238.4	9.494
298.15 K, x1 = 0.214	1254.1	13
298.15 K, x1 = 0.257	1273.4	20.35
298.15 K, x1 = 0.319	1293.9	35.33
303.15 K, x1 = 0.026	1059.2	1.117
303.15 K, x1 = 0.049	1101.3	1.463
303.15 K, x1 = 0.068	1130.3	1.836
303.15 K, x1 = 0.086	1153	2.292
303.15 K, x1 = 0.119	1188.1	3.487
303.15 K, x1 = 0.156	1217.2	5.347
303.15 K, x1 = 0.185	1235.6	8.22
303.15 K, x1 = 0.214	1251.3	11.13
303.15 K, x1 = 0.257	1270.5	17.24
303.15 K, x1 = 0.319	1290.9	29.38
308.15 K, x1 = 0.026	1057.2	1.017
308.15 K, x1 = 0.049	1099.1	1.296
308.15 K, x1 = 0.068	1127.9	1.645
308.15 K, x1 = 0.086	1150.4	2.046
308.15 K, x1 = 0.119	1185.4	3.095
308.15 K, x1 = 0.156	1214.5	4.593
308.15 K, x1 = 0.185	1232.8	7.127
308.15 K, x1 = 0.214	1248.4	9.581
308.15 K, x1 = 0.257	1267.6	14.63
308.15 K, x1 = 0.319	1288	24.38
313.15 K, x1 = 0.026	1055.1	0.917
313.15 K, x1 = 0.049	1096.7	1.171
313.15 K, x1 = 0.068	1125.4	1.484
313.15 K, x1 = 0.086	1147.9	1.839
313.15 K, x1 = 0.119	1182.7	2.771
313.15 K, x1 = 0.156	1211.7	4.112
313.15 K, x1 = 0.185	1229.9	6.185
313.15 K, x1 = 0.214	1245.5	8.263
313.15 K, x1 = 0.257	1264.6	12.43
313.15 K, x1 = 0.319	1285	20.45
318.15 K, x1 = 0.026	1052.6	0.841
318.15 K, x1 = 0.049	1093.9	1.068
318.15 K, x1 = 0.068	1122.8	1.35
318.15 K, x1 = 0.086	1145.2	1.663
318.15 K, x1 = 0.119	1179.9	2.486
318.15 K, x1 = 0.156	1208.8	3.655
318.15 K, x1 = 0.185	1227	5.378
318.15 K, x1 = 0.214	1242.5	7.16
318.15 K, x1 = 0.257	1261.7	10.68
318.15 K, x1 = 0.319	1282	17.3
323.15 K, x1 = 0.026	1050.7	0.775
323.15 K, x1 = 0.049	1091.4	0.98
323.15 K, x1 = 0.068	1120.1	1.234
323.15 K, x1 = 0.086	1142.5	1.513
323.15 K, x1 = 0.119	1177.1	2.242
323.15 K, x1 = 0.156	1205.9	3.307
323.15 K, x1 = 0.185	1224.1	4.688
323.15 K, x1 = 0.214	1239.6	6.248
323.15 K, x1 = 0.257	1258.7	9.249
323.15 K, x1 = 0.319	1279	14.91
328.15 K, x1 = 0.026	1048.6	0.72
328.15 K, x1 = 0.049	1088.9	0.902
328.15 K, x1 = 0.068	1117.2	1.132
328.15 K, x1 = 0.086	1139.7	1.382
328.15 K, x1 = 0.119	1174.2	2.034
328.15 K, x1 = 0.156	1203	2.962
328.15 K, x1 = 0.185	1221.2	4.143
328.15 K, x1 = 0.214	1236.6	5.498
328.15 K, x1 = 0.257	1255.7	8.108
328.15 K, x1 = 0.319	1276	12.84
333.15 K, x1 = 0.026	1046.5	0.669
333.15 K, x1 = 0.049	1085.9	0.837
333.15 K, x1 = 0.068	1114.5	1.046
333.15 K, x1 = 0.086	1136.8	1.273
333.15 K, x1 = 0.119	1171.2	1.857
333.15 K, x1 = 0.156	1200.1	2.679
333.15 K, x1 = 0.185	1218.2	3.576
333.15 K, x1 = 0.214	1233.6	4.864
333.15 K, x1 = 0.257	1252.7	7.142
333.15 K, x1 = 0.319	1273	11.49
338.15 K, x1 = 0.026	1044.3	0.632
338.15 K, x1 = 0.049	1083.9	0.786
338.15 K, x1 = 0.068	1112.2	0.965
338.15 K, x1 = 0.086	1134.1	1.174
338.15 K, x1 = 0.119	1168.1	1.707
338.15 K, x1 = 0.156	1197.1	2.439
338.15 K, x1 = 0.185	1215.2	3.122
338.15 K, x1 = 0.214	1230.6	4.315
338.15 K, x1 = 0.257	1249.7	6.33
338.15 K, x1 = 0.319	1270	10.29
343.15 K, x1 = 0.026	1042.2	0.588
343.15 K, x1 = 0.049	1081.4	0.737
343.15 K, x1 = 0.068	1109.6	0.906
343.15 K, x1 = 0.086	1131.4	1.112
343.15 K, x1 = 0.119	1165.6	1.569
343.15 K, x1 = 0.156	1194	2.202
343.15 K, x1 = 0.185	1212.1	2.835
343.15 K, x1 = 0.214	1227.6	3.849
343.15 K, x1 = 0.257	1246.6	5.548
343.15 K, x1 = 0.319	1266.9	9.319
348.15 K, x1 = 0.026	1040.1	0.56
348.15 K, x1 = 0.049	1078.9	0.679
348.15 K, x1 = 0.068	1107	0.853
348.15 K, x1 = 0.086	1128.3	1.071
348.15 K, x1 = 0.119	1162.8	1.454
348.15 K, x1 = 0.156	1190.9	2.022
348.15 K, x1 = 0.185	1209.4	2.576
348.15 K, x1 = 0.214	1224.5	3.479
348.15 K, x1 = 0.257	1243.6	4.96
348.15 K, x1 = 0.319	1263.9	8.658
